Source: US20050282911A1, “Memantine for the prevention or reduction of suicidality and for treatment of major depression associated with suicidality” (priority 2003, published 2005)

Test system: patients with major depressive disorder (MDD)
Assay: Open-label, flexible dose, 12-week study of memantine in major depressive disorder (MEM-MD-09): efficacy
Assay type: in vivo, human
Parameters: CGI-I mean score: scale not given here
Conditions: for CGI-I mean score / Mean Change from Baseline in CGI-S / Mean Change from Baseline in HAM-D / Mean Change from Baseline in MADRS: ITT Population; for Mean Change from Baseline in CGI-S: baseline 4.3; for Mean Change from Baseline in HAM-D: baseline 30.0; for Mean Change from Baseline in MADRS: baseline 31.9
Source text: The present study was a single-center, open-label, flexible dose, 12-week study designed to provide a preliminary assessment of the efficacy and safety of memantine in patients with major depressive disorder (MDD). In order to assess the efficacy of treatment on depressive symptomatology, the primary efficacy assessment was the Montgomery Depression Rating Scale (MADRS). Secondary efficacy assessments included the Hamilton Depression Rating Scale (HAM-D), the Clinical Global Impressions—Severity Scale (CGI-S), the Clinical Global Impressions—Improvement Scale (CGI-I), the Patient Global Evaluation (PGE), and the Quality of Life Scale (QOL).
Study Design. The study was designed as a single-center, open-label, flexible dose 12-week study. Memantine was to be administered at 20 mg/day (10 mg b.i.d.) (titrated over a 4 week period), and, if warranted, up-titrated to a maximum of 40 mg/day (20 mg b.i.d.) (titrated in increments of 10 mg/day after Week 4).
Entrance Criteria. Criteria for enrollment were as follows: (i) male or female outpatients between 18 and 80 years of age at screening; (ii) diagnosis of MDD consistent with DSM-IV; (iii) Montgomery Asberg Depression Rating Scale (MADRS) score of 22 or greater; and CGI severity score of 4 or greater. None of the patients had attempted suicide or were diagnosed as being at risk for committing suicide.
Endpoints. The primary endpoint was improvement according to Montgomery Asberg Depression Rating Scale (MADRS). Secondary endpoints were improvements according to the Hamilton Depression Rating Scale (HAM-D), the Clinical Global Impressions-Severity Scale (CGI-S), the Clinical Global Impressions-Improvement Scale (CGI-I), Patient Global Evaluation (PGE), and Quality of Life Scale (QOL).
MADRS. MADRS is either self-administered (MADRS-S) or interviewer administered evaluation of symptoms of depression in adults. MADRS evaluates ten areas of depressive symptomatology: apparent sadness, reported sadness, inner tension, reduced sleep, reduced appetite, concentration difficulties, lassitude, inability to feel, pessimistic thoughts, and suicidal thoughts. Each area is rated on a seven-point scale (0-6).
MADRS was administered to each of the study participants at baseline, and weeks 1, 2, 3, 4, 6, 8, 10 and 12.
HAM-D. HAM-D criteria were assessed at weeks 1, 2, 4, 8 and 12. HAM-D is a 24-item scale that evaluates depressed mood, vegetative and cognitive symptoms of depression, and comorbid anxiety symptoms. It provides ratings on current DSM-IV symptoms of depression, with the exceptions of hypersomnia, increased appetite, and concentration/indecision. There are several ways of analyzing HAM-D. According to one analysis, the first 17-items are rated on either a 5-point (0-4) or a 3-point (0-2) scale. In general, the 5-point scale items use a rating of 0=absent; 1=doubtful to mild; 2=mild to moderate; 3=moderate to severe; 4=very severe. A rating of 4 is usually reserved for extreme symptoms. The 3-point scale items used a rating of 0=absent; 1=probable or mild; 2=definite. The second analysis uses the same scale to rate the first 21 items, and the third analysis uses the scale to rate all 24 items. All three analyses were used in the present study and used statistically in the results.
Response to medication (i.e., memantine) was defined as a reduction in the HAM-D 24 score of 50%, while remission was defined as a reduction in the HAM-D total score to 7 or less.
DSM-IV. DSM-IV diagnostic criteria were determined at week 1 and again at the end of the study. […]

CC12CC3CC(C)(C1)CC(N)(C3)C2.Cl [Memantine, 1-amino-3,5-dimethyladamantane hydrochloride]
HAM-D ECDEU combination (cognitive disturbance factor) (12 week period): improved
shift in severity ranking (CGI-S) (12 week period, with the exception of one patient): improved to “mildly depressed” or to “not depressed”
HAM-D item 8, MADRS item 6 and DSM-IV criterion “h” (concentration, cognitive disturbance) (12 week treatment period): improved
reduction in MADRS and HAM-D (17-, 21-, and 24-question versions) at endpoint (LOCF analyses, endpoint): approximately 18 points
CGI-I mean score (Week 1, LOCF): 2.7
Mean Change from Baseline in CGI-S (Week 1, LOCF): −0.5
Mean Change from Baseline in HAM-D (Week 1, LOCF): −6.1
Mean Change from Baseline in MADRS (Week 1, LOCF): −7.9
CGI-I mean score (Week 1, OC): 2.7
Mean Change from Baseline in CGI-S (Week 1, OC): −0.7
Mean Change from Baseline in HAM-D (Week 1, OC): −8.2
Mean Change from Baseline in MADRS (Week 1, OC): −10.5
CGI-I mean score (Week 2, LOCF): 2.8
Mean Change from Baseline in CGI-S (Week 2, LOCF): −0.6
Mean Change from Baseline in HAM-D (Week 2, LOCF): −11.8
Mean Change from Baseline in MADRS (Week 2, LOCF): −12.1
CGI-I mean score (Week 2, OC): 2.8
Mean Change from Baseline in CGI-S (Week 2, OC): −0.6
Mean Change from Baseline in HAM-D (Week 2, OC): −11.8
Mean Change from Baseline in MADRS (Week 2, OC): −12.1
CGI-I mean score (Week 3, LOCF): 2.4
Mean Change from Baseline in CGI-S (Week 3, LOCF): −0.9
Mean Change from Baseline in MADRS (Week 3, LOCF): −14.3
CGI-I mean score (Week 3, OC): 2.3
Mean Change from Baseline in CGI-S (Week 3, OC): −1.0
Mean Change from Baseline in MADRS (Week 3, OC): −14.7
CGI-I mean score (Week 4, LOCF): 2.3
Mean Change from Baseline in CGI-S (Week 4, LOCF): −1.3
Mean Change from Baseline in HAM-D (Week 4, LOCF): −16.8
Mean Change from Baseline in MADRS (Week 4, LOCF): −15.6
CGI-I mean score (Week 4, OC): 2.1
Mean Change from Baseline in CGI-S (Week 4, OC): −1.4
Mean Change from Baseline in HAM-D (Week 4, OC): −20.8
Mean Change from Baseline in MADRS (Week 4, OC): −17.0
CGI-I mean score (Week 6, LOCF): 2.4
Mean Change from Baseline in CGI-S (Week 6, LOCF): −1.3
Mean Change from Baseline in MADRS (Week 6, LOCF): −15.0
CGI-I mean score (Week 6, OC): 2.4
Mean Change from Baseline in CGI-S (Week 6, OC): −1.3
Mean Change from Baseline in MADRS (Week 6, OC): −15.0
CGI-I mean score (Week 8, LOCF): 2.0
Mean Change from Baseline in CGI-S (Week 8, LOCF): −1.5
Mean Change from Baseline in HAM-D (Week 8, LOCF): −16.8
Mean Change from Baseline in MADRS (Week 8, LOCF): −18.6
CGI-I mean score (Week 8, OC): 1.9
Mean Change from Baseline in CGI-S (Week 8, OC): −1.6
Mean Change from Baseline in HAM-D (Week 8, OC): −19.0
Mean Change from Baseline in MADRS (Week 8, OC): −20.4
CGI-I mean score (Week 10, LOCF): 2.1
Mean Change from Baseline in CGI-S (Week 10, LOCF): −1.8
Mean Change from Baseline in MADRS (Week 10, LOCF): −18.5
CGI-I mean score (Week 10, OC): 2.3
Mean Change from Baseline in CGI-S (Week 10, OC): −1.6
Mean Change from Baseline in MADRS (Week 10, OC): −16.7
CGI-I mean score (Week 12, LOCF): 2.1
Mean Change from Baseline in CGI-S (Week 12, LOCF): −1.5
Mean Change from Baseline in HAM-D (Week 12, LOCF): −17.8
Mean Change from Baseline in MADRS (Week 12, LOCF): −18.5
CGI-I mean score (Week 12, OC): 2.3
Mean Change from Baseline in CGI-S (Week 12, OC): −1.3
Mean Change from Baseline in HAM-D (Week 12, OC): −16.0
Mean Change from Baseline in MADRS (Week 12, OC): −16.7
overall impression of improvement (CGI-I) (after 12 weeks): overall impression of improvement as measured using CGI-I in all patients with the exception of one
DSM-IV checklist: degree of symptomology (all DSM-IV categories, end of study): reduction in the degree of symptomology in all DSM-IV categories
improvement on the primary and all secondary efficacy variables (baseline to Week 12, LOCF and OC approaches): Significant improvement
onset of therapeutic benefit in the treatment of MDD (eight patients with MDD, first assessment): 1 week
patients considered “Very Much Improved” or “Much Improved” as measured by the CGI-I (end of Week 8): 6 of 7
patients responded to treatment, as measured by the MADRS and the HAM-D (end of Week 8, responder defined as 50% improvement from baseline): 5 of the 7
DSM-IV checklist: categories of appetite and agitation/retardation (end of study): complete remission of symptoms in all patients
overall therapeutic response compared to citalopram and escitalopram (memantine 20-40 mg/day, comparison with prior study SCT-MD-01): larger magnitude and faster onset of overall therapeutic response
appetite items HAM-D 12, MADRS item 5 and DSM-IV item “c” (overall scores versus baseline): decrease from baseline
HAM-D items 1, 2, 3 and 7 (specific items chosen for analysis): positive change
score of item 3 of HAM-D (suicide) (throughout visit 8): steady improvement
patients meeting criteria as CGI-I responders (week 12): 62.5%
mean change from baseline to endpoint on the HAM-D (week 12, printed without sign): about 17.8
mean change from baseline to endpoint on the MADRS (week 12, printed without sign): about 18.5
HAM-D item combinations for melancholy, anxiety, psychomotor retardation and insomnia (week 12 from baseline): improvement
